Assay results published in US20030157155A1, “Compositions for use as penetration promoters in transdermal formulations for highly lipophilic active ingredients” (priority 2000, published 2003).

How the values were obtained:
[1] = octanol/water partition coefficient

`CN(CCCCC[C@@H]1Cc2cc(O)ccc2[C@@H]2[C@@H]1[C@@H]1CC[C@H](O)[C@@]1(C)C[C@@H]2F)CCCSCCCC(F)(F)C(F)(F)F` [antiestrogen 1, 11β-fluoro-7α-{5-[N-methyl-N-3-(4,4,5,5,5-pentafluoropentylthio)propylamino]pentyl}estra-1,3,5(10)-triene-3,17β-diol] showed a logP (physchem) of 5.8.

Compound `CN(CCCCCCC(F)(F)C(F)(F)C(F)(F)C(F)(F)F)CCCCC[C@@H]1Cc2cc(O)ccc2[C@@H]2[C@@H]1[C@@H]1CC[C@H](O)[C@@]1(C)C[C@@H]2F` [antiestrogen 2, 11β-fluoro-7α-{5-[methyl-(7,7,8,8,9,9,10,10,10-nonafluorodecyl)amino]pentyl}estra-1,3,5(10)-triene-3,17β-diol] has a logP [1] of 7.8.
